Converted amounts (≈) assume the structure as drawn. Read-outs that look alike come from different tables or passages of the source.
Assays:
S. pneumoniae 1629 = test: MIC against S. pneumoniae 1629, alone and with subinhibitory concentrations of a second agent; format: cell-based, Streptococcus pneumoniae; conditions: for MIC, antibiotic with 0.06 ug/mL (¼ MIC) of Compound (1b) / fold decrease MIC, antibiotic with 0.06 ug/mL (¼ MIC) of Compound (1b) / MIC, antibiotic with […] (½ MIC) of Compound (1b) / fold decrease MIC, antibiotic with […] (½ MIC) of Compound (1b) / MIC, antibiotic alone / Compound (1b) fold decrease MIC: S. pneumoniae 1629; for MIC, antibiotic with 0.06 ug/mL (¼ MIC) of Compound (1b) / fold decrease MIC, antibiotic with 0.06 ug/mL (¼ MIC) of Compound (1b): +0.06 ug/mL Compound (1b); for MIC, antibiotic alone: single agent; for MIC: Streptococcus pneumoniae, 1629, S. pneumoniae 1629
S. aureus WCUH29 = test: MIC against S. aureus WCUH29, alone and with subinhibitory concentrations of a second agent; format: cell-based, Staphylococcus aureus; conditions: for MIC, antibiotic with 0.5 ug/mL (¼ MIC) of Compound (1a) / fold decrease MIC, antibiotic with 0.5 ug/mL (¼ MIC) of Compound (1a) / MIC, antibiotic with 1 ug/mL (½ MIC) of Compound (1a) / fold decrease MIC, antibiotic with 1 ug/mL (½ MIC) of Compound (1a) / MIC, antibiotic alone: S. aureus WCUH29; for MIC, antibiotic with 0.5 ug/mL (¼ MIC) of Compound (1a) / fold decrease MIC, antibiotic with 0.5 ug/mL (¼ MIC) of Compound (1a): +0.5 ug/mL Compound (1a); for MIC, antibiotic with 1 ug/mL (½ MIC) of Compound (1a) / fold decrease MIC, antibiotic with 1 ug/mL (½ MIC) of Compound (1a): +1 ug/mL Compound (1a); for MIC, antibiotic alone: single agent; for decrease of MIC by subinhibitory concentrations of Compound (1a): S. aureus, Example 3; for MIC: Staphylococcus aureus, WCUH29, S. aureus WCUH29, no second agent, read-out: MIC, single agent
H. influenzae Q1 = test: MIC against H. influenzae Q1, alone and with subinhibitory concentrations of a second agent; format: cell-based, Haemophilus influenzae;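 also: combinations paired PDF inhibitors with macrolides, one class added below its own MIC to test whether the MIC of the other class dropped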
S. aureus strain Smith = test: MIC against S. aureus strain Smith, alone and in combination; format: cell-based, Staphylococcus aureus
S. aureus strain Oxford = test: MIC against S. aureus strain Oxford, alone and in combination; format: cell-based, Staphylococcus aureus
Excerpt: (§1) Subinhibitory Concentrations of PDF Inhibitors Decrease the MICs of Macrolides against Representative S. aureus Strains
(§2) Subinhibitory Concentrations of Macrolides Decrease the MICs of PDF Inhibitors against Representative S. aureus Strains

S. aureus strain RN4220 = test: MIC against S. aureus strain RN4220, alone and in combination; format: cell-based, Staphylococcus aureus
S. aureus strain PK1 = test: MIC against S. aureus strain PK1, alone and in combination; format: cell-based, Staphylococcus aureus
Excerpt: as §1, §2

[1] = no second agent, read-out: MIC, single agent
[2] = H. influenzae Q1, +0.5 ug/mL Compound (1a)
[3] = H. influenzae Q1, +1 ug/mL Compound (1a)
[4] = H. influenzae Q1, single agent (Example 7)
[5] = H. influenzae Q1, +0.25 ug/m Azithromycin
[6] = H. influenzae Q1, +0.5 ug/mL Azithromycin
[7] = Staphylococcus aureus, macrolide alone, read-out: MIC, −Compound (1a)

Compound | decrease of MIC by subinhibitory concentrations of Compound (1b) (S. pneumoniae 1629; S. pneumoniae) | MIC, antibiotic with 0.06 ug/mL (¼ MIC) of Compound (1b) (S. pneumoniae 1629) [µg/mL] | fold decrease MIC, antibiotic with 0.06 ug/mL (¼ MIC) of Compound (1b) (S. pneumoniae 1629) | MIC, antibiotic with […] (½ MIC) of Compound (1b) (S. pneumoniae 1629) [µg/mL] | fold decrease MIC, antibiotic with […] (½ MIC) of Compound (1b) (S. pneumoniae 1629) | MIC, antibiotic alone (S. pneumoniae 1629) [µg/mL] | MIC (S. pneumoniae 1629; [1]) [µg/mL] | MIC, antibiotic with 0.5 ug/mL (¼ MIC) of Compound (1a) (S. aureus WCUH29) [µg/mL] | fold decrease MIC, antibiotic with 0.5 ug/mL (¼ MIC) of Compound (1a) (S. aureus WCUH29) | MIC, antibiotic with 1 ug/mL (½ MIC) of Compound (1a) (S. aureus WCUH29) [µg/mL] | fold decrease MIC, antibiotic with 1 ug/mL (½ MIC) of Compound (1a) (S. aureus WCUH29) | MIC, antibiotic alone (S. aureus WCUH29) [µg/mL] | decrease of MIC by subinhibitory concentrations of Compound (1a) (S. aureus WCUH29) | MIC, antibiotic with 0.5 ug/mL (¼ MIC) of Compound (1a) (H. influenzae Q1; [2]) [µg/mL] | MIC, antibiotic with 1 ug/mL (½ MIC) of Compound (1a) (H. influenzae Q1; [3]) [µg/mL] | MIC, antibiotic alone (H. influenzae Q1; [4]) [µg/mL] | MIC (S. aureus WCUH29) [µg/mL] | also measured
C/C(=C\C(=O)OCCCCCCCCC(=O)O)C[C@@H]1OC[C@H](C[C@@H]2O[C@H]2[C@@H](C)[C@H](C)O)[C@@H](O)[C@H]1O [Mupirocin, mupirocin] | no effect | 0.5 | [0] fold | 0.5 | [0] fold | 0.5 (≈ 0.999 µM) | 0.5 (≈ 0.999 µM) | 0.125 | [0] fold | 0.125 | [0] fold | 0.125 (≈ 0.25 µM) | no effect | – | – | – | – | –
O=C(O)c1cn(C2CC2)c2cc(N3CCNCC3)c(F)cc2c1=O [Ciprofloxacin, ciprofloxacin] | no effect | 0.5 | [0] fold | 0.5 | [0] fold | 0.5 (≈ 1.51 µM) | 0.5 (≈ 1.51 µM) | 0.25 | [0] fold | 0.25 | [0] fold | 0.25 (≈ 0.754 µM) | no effect | 0.008 | 0.008 | 0.008 (≈ 0.0241 µM) | 0.25 (≈ 0.754 µM) | fold decrease MIC, antibiotic with 0.5 ug/mL (¼ MIC) of Compound (1a) (H. influenzae Q1; [2]): [0] fold; fold decrease MIC, antibiotic with 1 ug/mL (½ MIC) of Compound (1a) (H. influenzae Q1; [3]): [0] fold; decrease of MIC by subinhibitory concentrations of Compound (1a) (H. influenzae Q1; H. influenzae, text summary of Example 7): no effect
O=CN(O)C[C@@H](CC1CCCC1)C(=O)NNc1nc(N2CCOCC2)cc(C(F)(F)F)n1 [Compound (1b), N-hydroxy-N-((2R)-2-(cyclopentylmethyl)-3-{N′-[4-(morpholin-4-yl)-6-(trifluoromethyl)-pyrimidin-2-yl]-hydrazino}-3-oxopropyl)-formamide] | – | – | – | – | – | – | 0.25 (≈ 0.543 µM) | – | – | – | – | – | – | – | – | – | – | decrease of MIC by subinhibitory concentrations of azithromycin (S. pneumoniae 1629; S. pneumoniae): 4-16 fold; decrease of MIC by subinhibitory concentrations of erythromycin (S. pneumoniae 1629; S. pneumoniae): 8-32 fold; effect of subinhibitory concentrations of ciprofloxacin on antibacterial potency (S. pneumoniae 1629; S. pneumoniae): no effect; effect of subinhibitory concentrations of mupirocin on antibacterial potency (S. pneumoniae 1629; S. pneumoniae): no effect; Compound (1b) fold decrease MIC (S. pneumoniae 1629; +Azithromycin 0.008 μg/ml {¼ × MIC}): [4] fold; Compound (1b) fold decrease MIC (S. pneumoniae 1629; +Azithromycin […] {½ × MIC}): [16] fold; Compound (1b) fold decrease MIC (S. pneumoniae 1629; +Ciprofloxacin 0.25 μg/ml {½ × MIC}): [0] fold; Compound (1b) fold decrease MIC (S. pneumoniae 1629; +Ciprofloxacin […] {¼ × MIC}): [0] fold; Compound (1b) fold decrease MIC (S. pneumoniae 1629; +Erythromycin 0.008 μg/ml {¼ × MIC}): [8] fold; Compound (1b) fold decrease MIC (S. pneumoniae 1629; +Erythromycin […] {½ × MIC}): [32] fold; Compound (1b) fold decrease MIC (S. pneumoniae 1629; +Mupirocin 0.25 μg/ml {½ × MIC}): [0] fold; Compound (1b) fold decrease MIC (S. pneumoniae 1629; +Mupirocin […] {¼ × MIC}): [0] fold; MIC (S. pneumoniae 1629; +Azithromycin 0.008 μg/ml {¼ × MIC}, read-out: Compound (1b) MIC): 0.06 µg/mL (≈ 0.13 µM); MIC (S. pneumoniae 1629; +Azithromycin […] {½ × MIC}, read-out: Compound (1b) MIC): 0.016 µg/mL (≈ 0.0347 µM); MIC (S. pneumoniae 1629; +Ciprofloxacin 0.25 μg/ml {½ × MIC}, read-out: Compound (1b) MIC): 0.25 µg/mL (≈ 0.543 µM); MIC (S. pneumoniae 1629; +Ciprofloxacin […] {¼ × MIC}, read-out: Compound (1b) MIC): 0.25 µg/mL (≈ 0.543 µM); MIC (S. pneumoniae 1629; +Erythromycin 0.008 μg/ml {¼ × MIC}, read-out: Compound (1b) MIC): 0.03 µg/mL (≈ 0.0652 µM); MIC (S. pneumoniae 1629; +Erythromycin […] {½ × MIC}, read-out: Compound (1b) MIC): 0.008 µg/mL (≈ 0.0174 µM); MIC (S. pneumoniae 1629; +Mupirocin 0.25 μg/ml {½ × MIC}, read-out: Compound (1b) MIC): 0.25 µg/mL (≈ 0.543 µM); MIC (S. pneumoniae 1629; +Mupirocin […] {¼ × MIC}, read-out: Compound (1b) MIC): 0.25 µg/mL (≈ 0.543 µM)
CC[C@H]1OC(=O)[C@H](C)[C@@H](O[C@H]2C[C@@](C)(OC)[C@@H](O)[C@H](C)O2)[C@H](C)[C@@H](O[C@@H]2O[C@H](C)C[C@H](N(C)C)[C@H]2O)[C@](C)(O)C[C@@H](C)C(=O)[C@H](C)[C@@H](O)[C@]1(C)O [Erythromycin, erythromycin] | 4-16 fold | 0.008 | – | – | – | 0.03 (≈ 0.0409 µM) | 0.03 (≈ 0.0409 µM) | – | – | 0.016 | – | 0.25 (≈ 0.341 µM) | 2-16 fold | 2 | 1 | 8 (≈ 10.9 µM) | 0.25 (≈ 0.341 µM) | –
CCCCC[C@H](CN(O)C=O)C(=O)NNc1nnc2cccc(C)c2n1 [Compound (1c), N-hydroxy((2R)-2-{[2-(5-methyl-1,2,4-benzotriazin-3-yl)hydrazino]carbonyl}heptyl)formamide] | – | – | – | – | – | – | – | – | – | – | – | – | – | – | – | – | – | MIC, antibiotic with 0.25 ug/m (¼ MIC) of Azithromycin (H. influenzae Q1; [5]): 0.5 µg/mL; fold decrease MIC, antibiotic with 0.25 ug/m (¼ MIC) of Azithromycin (H. influenzae Q1; [5]): [2] fold; MIC, antibiotic with 0.5 ug/mL (½ MIC) of Azithromycin (H. influenzae Q1; [6]): 0.125 µg/mL; fold decrease MIC, antibiotic with 0.5 ug/mL (½ MIC) of Azithromycin (H. influenzae Q1; [6]): [8] fold; MIC, antibiotic alone (H. influenzae Q1; H. influenzae Q1, single agent (Example 8)): 1 µg/mL (≈ 2.77 µM)
CC[C@H]1OC(=O)[C@H](C)[C@@H](O[C@H]2C[C@@](C)(OC)[C@@H](O)[C@H](C)O2)[C@H](C)[C@@H](O[C@@H]2O[C@H](C)C[C@H](N(C)C)[C@H]2O)[C@](C)(O)C[C@@H](C)CN(C)[C@H](C)[C@@H](O)[C@]1(C)O [Azithromycin, azithromycin] | 2-8 fold | 0.016 | – | – | – | 0.03 (≈ 0.0401 µM) | 0.03 (≈ 0.0401 µM) | – | – | 0.03 | – | 1 (≈ 1.34 µM) | 8-32 fold | 0.25 | – | 1 (≈ 1.34 µM) | 1 (≈ 1.34 µM) | MIC (S. aureus strain Smith; [7]): 1 µg/mL; MIC, +Compound (1a) [¼ × MIC] (S. aureus strain Smith; with ¼ × MIC of Compound (1a)): 0.25 µg/mL; MIC (S. aureus strain Oxford; [7]): 0.5 µg/mL; MIC, +Compound (1a) [¼ × MIC] (S. aureus strain Oxford; with ¼ × MIC of Compound (1a)): 0.25 µg/mL; MIC, +Compound (1a) [½ × MIC] (S. aureus strain Oxford; with ½ × MIC of Compound (1a)): 0.06 µg/mL; MIC (S. aureus strain RN4220; [7]): 1 µg/mL; MIC, +Compound (1a) [¼ × MIC] (S. aureus strain RN4220; with ¼ × MIC of Compound (1a)): 0.25 µg/mL; MIC (S. aureus strain PK1; [7]): > 64 µg/mL; MIC, +Compound (1a) [¼ × MIC] (S. aureus strain PK1; with ¼ × MIC of Compound (1a)): 32 µg/mL; MIC, +Compound (1a) [½ × MIC] (S. aureus strain PK1; with ½ × MIC of Compound (1a)): 16 µg/mL
